This note sets out measurements from ChEMBL document CHEMBL1671687, “Enhancement of biofilm formation by subinhibitory concentrations of macrolides in icaADBC-positive and -negative clinical isolates of Staphylococcus epidermidis” (2010).

Type in all cases: functional
Test [1] relates to Staphylococcus epidermidis. Description: Enhancement of biofilm formation Staphylococcus epidermidis SW029 expressing icaA gene at subinhibitory concentration by microtiter plate assay. Further details: scale not given: the % may be the effect or the level left.
Test [2] deals with Staphylococcus epidermidis. Description: Enhancement of biofilm formation Staphylococcus epidermidis SW032 expressing icaA gene at subinhibitory concentration by microtiter plate assay. Further details: scale not given: the % may be the effect or the level left.
The subject of test [3] is Staphylococcus epidermidis. The experiment in a line: Enhancement of biofilm formation Staphylococcus epidermidis SW045 expressing icaA gene at subinhibitory concentration by microtiter plate assay. Further details: scale not given: the % may be the effect or the level left.
Test [4] concerns Staphylococcus epidermidis. The experiment in a line: Enhancement of biofilm formation Staphylococcus epidermidis SW058 expressing icaA gene at subinhibitory concentration by microtiter plate assay. Further details: scale not given: the % may be the effect or the level left.
In test [5] the test system is Staphylococcus epidermidis. Description: Enhancement of biofilm formation Staphylococcus epidermidis SW061 expressing icaA gene at subinhibitory concentration by microtiter plate assay. Further details: scale not given: the % may be the effect or the level left.
Test [6] has as its system Staphylococcus epidermidis. Description: Enhancement of biofilm formation Staphylococcus epidermidis SW067 expressing icaA gene at subinhibitory concentration by microtiter plate assay. Further details: scale not given: the % may be the effect or the level left.
For test [7], the system named is Staphylococcus epidermidis. The experiment in a line: Enhancement of biofilm formation Staphylococcus epidermidis SW085 expressing icaA gene at subinhibitory concentration by microtiter plate assay. Further details: scale not given: the % may be the effect or the level left.
In test [8] the test system is Staphylococcus epidermidis. The experiment in a line: Enhancement of biofilm formation Staphylococcus epidermidis SW098 expressing icaA gene at subinhibitory concentration by microtiter plate assay. Further details: scale not given: the % may be the effect or the level left.
For test [9], the system named is Staphylococcus epidermidis. The experiment in a line: Enhancement of biofilm formation Staphylococcus epidermidis SW104 expressing icaA gene at subinhibitory concentration by microtiter plate assay. Further details: scale not given: the % may be the effect or the level left.
For test [10], the system named is Staphylococcus epidermidis. The experiment in a line: Enhancement of biofilm formation Staphylococcus epidermidis SW126 expressing icaA gene at subinhibitory concentration by microtiter plate assay. Further details: scale not given: the % may be the effect or the level left.
The subject of test [11] is Staphylococcus epidermidis. Description: Enhancement of biofilm formation Staphylococcus epidermidis SW015 at subinhibitory concentration by microtiter plate assay. Further details: scale not given: the % may be the effect or the level left.
The subject of test [12] is Staphylococcus epidermidis. The experiment in a line: Enhancement of biofilm formation Staphylococcus epidermidis SW021 at subinhibitory concentration by microtiter plate assay. Further details: scale not given: the % may be the effect or the level left.
The test system of test [13] is Staphylococcus epidermidis. The experiment in a line: Enhancement of biofilm formation Staphylococcus epidermidis SW036 at subinhibitory concentration by microtiter plate assay. Further details: scale not given: the % may be the effect or the level left.
Test [14] concerns Staphylococcus epidermidis. Description: Enhancement of biofilm formation Staphylococcus epidermidis SW070 at subinhibitory concentration by microtiter plate assay. Further details: scale not given: the % may be the effect or the level left.
Test [15] deals with Staphylococcus epidermidis. Description: Enhancement of biofilm formation Staphylococcus epidermidis SW071 at subinhibitory concentration by microtiter plate assay. Further details: scale not given: the % may be the effect or the level left.
For test [16], the system named is Staphylococcus epidermidis. Description: Enhancement of biofilm formation Staphylococcus epidermidis SW082 at subinhibitory concentration by microtiter plate assay. Further details: scale not given: the % may be the effect or the level left.
In test [17] the test system is Staphylococcus epidermidis. The experiment in a line: Enhancement of biofilm formation Staphylococcus epidermidis SW088 at subinhibitory concentration by microtiter plate assay. Further details: scale not given: the % may be the effect or the level left.
Test [18] relates to Staphylococcus epidermidis. The experiment in a line: Enhancement of biofilm formation Staphylococcus epidermidis SW099 at subinhibitory concentration by microtiter plate assay. Further details: scale not given: the % may be the effect or the level left.
Test [19] deals with Staphylococcus epidermidis. Description: Enhancement of biofilm formation Staphylococcus epidermidis SW115 at subinhibitory concentration by microtiter plate assay. Further details: scale not given: the % may be the effect or the level left.
Test [20] relates to Staphylococcus epidermidis. The experiment in a line: Enhancement of biofilm formation Staphylococcus epidermidis SW120 at subinhibitory concentration by microtiter plate assay. Further details: scale not given: the % may be the effect or the level left.
For test [21], the system named is Staphylococcus epidermidis. The experiment in a line: Antimicrobial activity against Staphylococcus epidermidis SW029 expressing icaA gene.
Test [22] deals with Staphylococcus epidermidis. The experiment in a line: Antimicrobial activity against Staphylococcus epidermidis SW036.
Test [23] deals with Staphylococcus epidermidis. Description: Antimicrobial activity against Staphylococcus epidermidis SW027 expressing icaA gene assessed as enhancement of biofilm formation at subinhibitory concentration by microtiter plate assay. Further details: scale not given: the % may be the effect or the level left.
In test [24] the test system is Staphylococcus epidermidis. Description: Enhancement of biofilm formation Staphylococcus epidermidis ATCC 35984 expressing icaA gene at subinhibitory concentration by microtiter plate assay. Further details: scale not given: the % may be the effect or the level left.

≈ marks a conversion by molar mass, not a printed value.

Consider `CC[C@H]1OC(=O)[C@H](C)[C@@H](O[C@H]2C[C@@](C)(OC)[C@@H](O)[C@H](C)O2)[C@H](C)[C@@H](O[C@@H]2O[C@H](C)C[C@H](N(C)C)[C@H]2O)[C@](C)(O)C[C@@H](C)CN(C)[C@H](C)[C@@H](O)[C@]1(C)O` [AZITHROMYCIN], for which the Activity was 157.9% in test [1]; 71.8% in test [2]; 33.4% in [3]; 37.6% in test [4]; 58.4% in [5]; 128.8% in test [6]. Also, the Activity came to 298.3% in test [7]; 104% in test [8]; 48.1% in [9]; 56.4% in test [10]; 57.3% in test [11]; 39.8% in test [12]. In addition, the Activity in test [13] worked out at 289.2%; in test [14] it was 92.3%; in [15], 277.8%; in test [16], 59.8%; in [17], 117.2%; in test [18], 47%. The Activity in test [19] was found to be 184.3%; in test [20] it was 75.8%; in [23] it was 49.1%; in test [24], 2.5%. Moreover, the MIC in test [21] and in test [22] was more than 128 µg/mL in each case.

For the molecule `CC[C@H]1OC(=O)[C@H](C)[C@@H](O[C@H]2C[C@@](C)(OC)[C@@H](O)[C@H](C)O2)[C@H](C)[C@@H](O[C@@H]2O[C@H](C)C[C@H](N(C)C)[C@H]2O)[C@](C)(OC)C[C@@H](C)C(=O)[C@H](C)[C@@H](O)[C@]1(C)O` [CLARITHROMYCIN], the Activity was 146.4% in test [1]; 71.8% in test [2]; 32.2% in [3]; 54.9% in [4]; 46.3% in [5]; 140.2% in [6]. Also, the Activity in [7] stood at 275.8%; in test [8] it was 112.8%; in test [9] it was 51.5%; in [10], 50.3%; in test [11] it was 78.6%; in test [12] it was 54.6%. The Activity in test [13] turned out to be 292%; in test [14], 155.6%; in test [15] it was 147.2%; in test [16], 62.8%; in [17], 201.5%; in test [18] it was 38.7%. Moreover, the Activity in [19] is recorded as 164%; in [20] it was 50.6%; in [23], 62.3%; in test [24] it was -3.9%. Also, the MIC (commonly the lowest concentration that inhibits growth of the organism) in [21] is more than 128 µg/mL; in test [22], 16 µg/mL (≈ 21.4 µM).
